Assay results reported in PubChem BioAssay (NCI).
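Interpolation was linear, between the two tested concentrations surrounding the appropriate level; five concentrations were tested over 48 hours in 96-well plates. TGI: total growth inhibition.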

Experiments:
Assay in all cases: NCI anticancer screen, dose series, 48 h
SF-295 CNS = tested on: SF-295 CNS
T-47D breast = tested on: T-47D breast
IGROV1 ovarian = tested on: IGROV1 ovarian
UACC-62 melanoma = tested on: UACC-62 melanoma
OVCAR-4 ovarian = tested on: OVCAR-4 ovarian
HCC-2998 colon = tested on: HCC-2998 colon
NCI-H460 lung = tested on: NCI-H460 lung
MOLT-4 leukemia = tested on: MOLT-4 leukemia
SW-620 colon = tested on: SW-620 colon
SK-MEL-5 melanoma = tested on: SK-MEL-5 melanoma
MDA-MB-231 breast = tested on: MDA-MB-231 breast
KM12 colon = tested on: KM12 colon
LOX IMVI melanoma = tested on: LOX IMVI melanoma
M14 melanoma = tested on: M14 melanoma
NCI-H226 lung = tested on: NCI-H226 lung
OVCAR-5 ovarian = tested on: OVCAR-5 ovarian
CAKI-1 renal = tested on: CAKI-1 renal
DU-145 prostate = tested on: DU-145 prostate
ACHN renal = tested on: ACHN renal
SR leukemia = tested on: SR leukemia
RPMI-8226 leukemia = tested on: RPMI-8226 leukemia
EKVX NSCLC = tested on: EKVX NSCLC
COLO 205 colon = tested on: COLO 205 colon
SF-539 CNS = tested on: SF-539 CNS
HT29 colon = tested on: HT29 colon
MDA-MB-435 = tested on: MDA-MB-435
NCI-H522 lung = tested on: NCI-H522 lung
HCT-116 colon = tested on: HCT-116 colon
SNB-75 CNS = tested on: SNB-75 CNS
SK-MEL-28 melanoma = tested on: SK-MEL-28 melanoma
UO-31 renal = tested on: UO-31 renal
MDA-N = tested on: MDA-N
HCT-15 colon = tested on: HCT-15 colon
A498 renal = tested on: A498 renal
786-0 renal = tested on: 786-0 renal
HOP-92 NSCLC = tested on: HOP-92 NSCLC
SN12C renal = tested on: SN12C renal
RXF 393 renal = tested on: RXF 393 renal
HS 578T breast = tested on: HS 578T breast
TK-10 renal = tested on: TK-10 renal
HOP-62 NSCLC = tested on: HOP-62 NSCLC
SK-OV-3 ovarian = tested on: SK-OV-3 ovarian
MCF7 breast = tested on: MCF7 breast
HL-60(TB) leukemia = tested on: HL-60(TB) leukemia
CCRF-CEM leukemia = tested on: CCRF-CEM leukemia
NCI-H23 lung = tested on: NCI-H23 lung
OVCAR-3 ovarian = tested on: OVCAR-3 ovarian
SF-268 CNS = tested on: SF-268 CNS
OVCAR-8 ovarian = tested on: OVCAR-8 ovarian
U251 CNS = tested on: U251 CNS
UACC-257 melanoma = tested on: UACC-257 melanoma
A549 NSCLC = tested on: A549 NSCLC
K-562 leukemia = tested on: K-562 leukemia
MALME-3M melanoma = tested on: MALME-3M melanoma
SNB-19 CNS = tested on: SNB-19 CNS
PC-3 prostate = tested on: PC-3 prostate
NCI/ADR-RES ovarian = tested on: NCI/ADR-RES ovarian
SK-MEL-2 melanoma = tested on: SK-MEL-2 melanoma
BT-549 breast = tested on: BT-549 breast

O=C(CC(C(=O)c1ccsc1)c1cccs1)c1ccccc1 (stereo unspecified)
TGI (SF-295 CNS): > 100 µM | TGI (T-47D breast): 33.7 µM | TGI (IGROV1 ovarian): > 100 µM | TGI (UACC-62 melanoma): > 100 µM | TGI (OVCAR-4 ovarian): 67.3 µM | TGI (HCC-2998 colon): > 100 µM | TGI (NCI-H460 lung): > 100 µM | TGI (MOLT-4 leukemia): > 100 µM | TGI (SW-620 colon): > 100 µM | TGI (SK-MEL-5 melanoma): > 100 µM | TGI (MDA-MB-231 breast): > 100 µM | TGI (KM12 colon): > 100 µM | TGI (LOX IMVI melanoma): > 100 µM | TGI (M14 melanoma): > 100 µM | TGI (NCI-H226 lung): > 100 µM | TGI (OVCAR-5 ovarian): > 100 µM | TGI (CAKI-1 renal): > 100 µM | TGI (DU-145 prostate): > 100 µM | TGI (ACHN renal): > 100 µM | TGI (SR leukemia): > 100 µM | TGI (RPMI-8226 leukemia): > 100 µM | TGI (EKVX NSCLC): > 100 µM | TGI (COLO 205 colon): > 100 µM | TGI (SF-539 CNS): > 100 µM | TGI (HT29 colon): > 100 µM | TGI (MDA-MB-435): > 100 µM | TGI (NCI-H522 lung): > 100 µM | TGI (HCT-116 colon): > 100 µM | TGI (SNB-75 CNS): > 100 µM | TGI (SK-MEL-28 melanoma): > 100 µM | TGI (UO-31 renal): 76.3 µM | TGI (MDA-N): > 100 µM | TGI (HCT-15 colon): > 100 µM | TGI (A498 renal): > 100 µM | TGI (786-0 renal): > 100 µM | TGI (HOP-92 NSCLC): > 100 µM | TGI (SN12C renal): > 100 µM | TGI (RXF 393 renal): > 100 µM | TGI (HS 578T breast): > 100 µM | TGI (TK-10 renal): > 100 µM | TGI (HOP-62 NSCLC): > 100 µM | TGI (SK-OV-3 ovarian): > 100 µM | TGI (MCF7 breast): > 100 µM | TGI (HL-60(TB) leukemia): > 100 µM | TGI (CCRF-CEM leukemia): > 100 µM | TGI (NCI-H23 lung): 93.3 µM | TGI (OVCAR-3 ovarian): > 100 µM | TGI (SF-268 CNS): > 100 µM | TGI (OVCAR-8 ovarian): > 100 µM | TGI (U251 CNS): > 100 µM | TGI (UACC-257 melanoma): > 100 µM | TGI (A549 NSCLC): 54.8 µM | TGI (K-562 leukemia): > 100 µM

CCC(C)C(Nc1c2ccccc2nc2c(C(=O)NCCN(C)C)cccc12)C(=O)O (stereo unspecified)
TGI (SF-295 CNS): 40.9 µM | TGI (IGROV1 ovarian): > 100 µM | TGI (UACC-62 melanoma): 47.4 µM | TGI (OVCAR-4 ovarian): 25.8 µM | TGI (MOLT-4 leukemia): > 100 µM | TGI (SW-620 colon): > 100 µM | TGI (SK-MEL-5 melanoma): > 100 µM | TGI (MDA-MB-231 breast): 65.5 µM | TGI (KM12 colon): > 100 µM | TGI (LOX IMVI melanoma): > 100 µM | TGI (M14 melanoma): 44.1 µM | TGI (NCI-H226 lung): 32.1 µM | TGI (OVCAR-5 ovarian): > 100 µM | TGI (DU-145 prostate): > 100 µM | TGI (ACHN renal): > 100 µM | TGI (MALME-3M melanoma): 35.1 µM | TGI (SR leukemia): > 100 µM | TGI (RPMI-8226 leukemia): > 100 µM | TGI (EKVX NSCLC): 77 µM | TGI (COLO 205 colon): > 100 µM | TGI (HT29 colon): 17.1 µM | TGI (MDA-MB-435): 41.9 µM | TGI (NCI-H522 lung): 56.8 µM | TGI (SNB-19 CNS): > 100 µM | TGI (HCT-116 colon): > 100 µM | TGI (SNB-75 CNS): 61.8 µM | TGI (SK-MEL-28 melanoma): 67.1 µM | TGI (UO-31 renal): 81.5 µM | TGI (MDA-N): 86.4 µM | TGI (HCT-15 colon): > 100 µM | TGI (A498 renal): 42.4 µM | TGI (786-0 renal): > 100 µM | TGI (HOP-92 NSCLC): 61.1 µM | TGI (SN12C renal): > 100 µM | TGI (HS 578T breast): 51.6 µM | TGI (TK-10 renal): > 100 µM | TGI (HOP-62 NSCLC): > 100 µM | TGI (SK-OV-3 ovarian): > 100 µM | TGI (MCF7 breast): > 100 µM | TGI (CCRF-CEM leukemia): > 100 µM | TGI (NCI-H23 lung): 79.3 µM | TGI (OVCAR-3 ovarian): > 100 µM | TGI (SF-268 CNS): 39.4 µM | TGI (OVCAR-8 ovarian): > 100 µM | TGI (U251 CNS): > 100 µM | TGI (PC-3 prostate): > 100 µM | TGI (NCI/ADR-RES ovarian): 77.6 µM | TGI (SK-MEL-2 melanoma): 46.7 µM | TGI (A549 NSCLC): > 100 µM | TGI (K-562 leukemia): > 100 µM

Cc1cc(C)c2c(=N)c3ccccc3n(CCCCCCCCn3c4ccccc4c(=N)c4c(C)cc(C)nc43)c2n1
TGI (T-47D breast): 3.23 µM | TGI (IGROV1 ovarian): 2.71 µM | TGI (SK-MEL-5 melanoma): 3.23 µM | TGI (KM12 colon): 1.42 µM | TGI (LOX IMVI melanoma): 2.61 µM | TGI (BT-549 breast): 3.29 µM | TGI (M14 melanoma): 3.09 µM | TGI (NCI-H226 lung): 3.38 µM | TGI (OVCAR-5 ovarian): 3.69 µM | TGI (CAKI-1 renal): 3.45 µM | TGI (DU-145 prostate): 3.07 µM | TGI (ACHN renal): 2.91 µM | TGI (MALME-3M melanoma): 3.11 µM | TGI (EKVX NSCLC): 2.91 µM | TGI (HT29 colon): 1.16 µM | TGI (SNB-19 CNS): 1.85 µM | TGI (HCT-116 colon): 1.59 µM | TGI (SNB-75 CNS): 2.18 µM | TGI (SK-MEL-28 melanoma): 3.02 µM | TGI (UO-31 renal): 2.81 µM | TGI (MDA-N): 2.78 µM | TGI (A498 renal): 2.94 µM | TGI (786-0 renal): 2.28 µM | TGI (HOP-92 NSCLC): 2.87 µM | TGI (SN12C renal): 2.94 µM | TGI (TK-10 renal): 4.72 µM | TGI (SK-OV-3 ovarian): 3.18 µM | TGI (OVCAR-3 ovarian): 3.27 µM | TGI (OVCAR-8 ovarian): 3.05 µM | TGI (PC-3 prostate): 2.86 µM | TGI (SK-MEL-2 melanoma): 3.03 µM | TGI (UACC-257 melanoma): 3.01 µM | TGI (K-562 leukemia): > 100 µM

Nc1cc(OCC2CCCCC2)nc(N)n1
TGI (SF-295 CNS): > 100 µM | TGI (IGROV1 ovarian): > 100 µM | TGI (UACC-62 melanoma): > 100 µM | TGI (OVCAR-4 ovarian): > 100 µM | TGI (HCC-2998 colon): > 100 µM | TGI (NCI-H460 lung): > 100 µM | TGI (MOLT-4 leukemia): > 100 µM | TGI (SW-620 colon): > 100 µM | TGI (SK-MEL-5 melanoma): > 100 µM | TGI (MDA-MB-231 breast): > 100 µM | TGI (KM12 colon): > 100 µM | TGI (LOX IMVI melanoma): > 100 µM | TGI (BT-549 breast): > 100 µM | TGI (M14 melanoma): > 100 µM | TGI (NCI-H226 lung): > 100 µM | TGI (OVCAR-5 ovarian): > 100 µM | TGI (CAKI-1 renal): > 100 µM | TGI (DU-145 prostate): > 100 µM | TGI (ACHN renal): > 100 µM | TGI (MALME-3M melanoma): > 100 µM | TGI (RPMI-8226 leukemia): > 100 µM | TGI (EKVX NSCLC): > 100 µM | TGI (COLO 205 colon): > 100 µM | TGI (SF-539 CNS): > 100 µM | TGI (HT29 colon): > 100 µM | TGI (MDA-MB-435): > 100 µM | TGI (NCI-H522 lung): > 100 µM | TGI (SNB-19 CNS): > 100 µM | TGI (HCT-116 colon): > 100 µM | TGI (SNB-75 CNS): > 100 µM | TGI (SK-MEL-28 melanoma): > 100 µM | TGI (UO-31 renal): > 100 µM | TGI (MDA-N): > 100 µM | TGI (HCT-15 colon): > 100 µM | TGI (786-0 renal): > 100 µM | TGI (HOP-92 NSCLC): > 100 µM | TGI (SN12C renal): > 100 µM | TGI (RXF 393 renal): > 100 µM | TGI (HS 578T breast): > 100 µM | TGI (TK-10 renal): > 100 µM | TGI (HOP-62 NSCLC): > 100 µM | TGI (SK-OV-3 ovarian): > 100 µM | TGI (HL-60(TB) leukemia): > 100 µM | TGI (CCRF-CEM leukemia): > 100 µM | TGI (NCI-H23 lung): > 100 µM | TGI (OVCAR-3 ovarian): > 100 µM | TGI (SF-268 CNS): > 100 µM | TGI (OVCAR-8 ovarian): > 100 µM | TGI (U251 CNS): > 100 µM | TGI (PC-3 prostate): > 100 µM | TGI (NCI/ADR-RES ovarian): > 100 µM | TGI (SK-MEL-2 melanoma): > 100 µM | TGI (UACC-257 melanoma): > 100 µM | TGI (A549 NSCLC): > 100 µM | TGI (K-562 leukemia): > 100 µM
